Laboratory results reported in PubChem BioAssay AID2305 (GlaxoSmithKline (GSK), 2010).

Test system: P. falciparum 3D7 growth, pLDH absorbance
Experiment: blood-stage malaria parasite growth potency – strain 3D7, dose response (AID 2305)

SMILES	IC50 [nM]
C=C(C)COc1ccc(-c2n[nH]c(C(F)(F)F)c2-c2ccccc2OC)c(O)c1	780
CC(C)CNCc1ccc(-c2cccc(CN(CCCN3CCN(C)CC3)C(=O)/C=C/c3ccccc3)c2)cc1	870
CCN1CCN(c2ccc(Nc3c4ccccc4nc4ccccc34)cc2)CC1	720
CCOC(=O)c1c(CN2CCN(C)CC2)n(Cc2ccccc2)c2cc(Br)c(O)cc12	590
CCNc1cc(C(=O)N[C@@H](Cc2ccccc2)[C@H](O)CNC(C)C)cc(N2CC(c3ccccc3)CCS2(=O)=O)c1 (some centres not stated)	410
Nc1nc(N)c2c(Cl)c(CNc3cccc(C(=O)O)c3)ccc2n1	10
O=C(Nc1cccc(-c2ccc(CN3CCCC3)cc2)c1)c1cccc(Cl)c1	430
CC(C)CNCc1ccc(-c2ccc(CN(CCCN3CCN(C)CC3)C(=O)CCC3CCCC3)cc2)cc1	1060
O=S1c2ccccc2Sc2ccccc21	170
N#Cc1ccc2[nH]cc(C(=O)CCCCCN(Cc3ccccc3)Cc3ccccc3)c2c1	790
Cc1cc(N2Cc3ccccc3C2)nc(Nc2ccc(S(=O)(=O)N3CCOCC3)cc2)n1	1110
CNCCNCc1ccc(-c2cccc(-c3nc4ccc(F)cc4[nH]3)c2)cc1	1130
COc1cc(C(=O)Nc2nc3ccccc3[nH]2)ccc1OCC(=O)Nc1cccc(C(F)(F)F)c1	740
CN1CCN(CC(=O)Nc2cccc(-c3cccc(-c4nc5ccc(F)cc5[nH]4)c3)c2)CC1	740
COc1ccc(Nc2nccc(N3CCC(NC(=O)C(C)c4ccc(Cl)cc4)C3)n2)cc1 (configuration not stated)	1010
CCN1CCC(NCc2ccc(-c3ccc(Cl)s3)cc2)CC1	940
CC(C)c1cccc(OCC2CCN(c3ncc(C(=O)Nc4ccccc4)cc3Cl)CC2)c1	1060
O=C(/C=C/c1ccc(Cl)cc1)NCCCCCN1CCCC(C(=O)Nc2ccc(Cl)c(Cl)c2)C1 (configuration not stated)	830
CCCCCCN=C(N)c1ccc2nc(-c3ccc(O)cc3)[nH]c2c1	190
CCc1c[nH]c2c(N3CCCS3(=O)=O)cc(C(=O)N[C@@H](Cc3ccccc3)[C@H](O)CNC(C)(C)c3cccc(C(F)(F)F)c3)cc12	230
c1ccc(CC2=NCCN2)cc1	190
C=CCNS(=O)(=O)c1ccc(NC(=O)C(C)Oc2ccc([N+](=O)[O-])cc2)cc1 (configuration not stated)	1220
c1ccn2c(Sc3ncnc4sccc34)ncc2c1	660
CN(C)CCNc1ncnc2c1[nH]c1ccc(Br)cc12	740

SMILES	IC50 [nM]
CCN(CC)c1ccc(C(c2ccc(N(CC)CC)cc2)c2ccc([N+](=O)[O-])cc2)cc1	950
COc1ccccc1C(=O)Nc1ccc(Nc2nc(C)cc(N(C)C)n2)cc1	790
FC(F)(F)CNc1nc(Nc2ccc3ncccc3c2)nc2[nH]ccc12	1240
CC[C@H](C)CNC(=O)c1cncc(-c2cccc(CNC3Cc4ccccc4C3)c2)c1	590
O=c1[nH]ccc2nc(N[C@@H]3CCNC3)nc(Nc3cc(Cl)cc(Cl)c3)c12	740
Cc1nnsc1C(=O)Nc1cccc(-c2cccc(-c3nc4ccc(F)cc4[nH]3)c2)c1	220
Cn1nccc1C(=O)NCCNCc1ccc(-c2cccc(-c3nc4ccc(F)cc4[nH]3)c2)cc1	220
O=[N+]([O-])c1cccc(CNC2CCN(Cc3ccc(Cl)c(Cl)c3)CC2)c1	460
Cc1cccc2[nH]c(-c3cccc(-c4cccc(NC(=O)Cc5cnc[nH]5)c4)c3)nc12	670
CCOc1c(Br)cc(Cl)cc1CNCCCNc1nc2ccccc2[nH]1	690
CC(CCCCOCCc1ccccc1)NCC(O)c1cc(Cl)c(N)c(Cl)c1 (configuration not stated)	790
Cc1cc(NCCC(=O)Nc2ccccc2)nc(NCC2CCCCC2)n1	840
Cc1cc(O)cc2c(C3CCN(CC4CCC(NC(=O)/C=C/c5ccccc5Cl)CC4)CC3)c[nH]c12 (configuration not stated)	900
O=C(NC1CCN(CCN2CCC(c3ccccc3C(F)(F)F)CC2)CC1)c1ccc(-c2ccc(Cl)cc2)cc1	710
COc1ccc(CN2C(=S)N(Cc3ccccc3)C(=O)C2CC(=O)Nc2ccccc2)cc1OC (configuration not stated)	840
CN(C)CCOc1cc(NC(=O)Nc2ccc(Oc3ccccc3)cc2)ccc1I	890
O=C(Nc1ccc(Cl)cc1C(=O)Nc1ccncc1)c1ccc(Cl)cc1Cl	610
COc1ccc2nccc([C@@H](O)CN3CCC(NCc4ccc5c(n4)NCCC5)CC3)c2c1	740
COc1cc2nc(SCCCC#N)n(C3CCCCCC3)c(=N)c2cc1OC	1140
O=C(O)c1ccc2nc(-c3ccc(-c4ccccc4)cc3)n(C3CCN(Cc4ccc(-c5ncc[nH]5)cc4)CC3)c2c1	1730
Cc1[nH]c2ccc(-c3ccc(N(C)C)cc3)cc2c(=O)c1Cl	720
COc1ccc(S(=O)(=O)N2CCCc3ccc(Br)cc32)cc1N1CCN(C(=O)C(Cl)(Cl)Cl)CC1	810
CN1CCC(N2CCN(Cc3ccc(-c4cccc(-c5nc6ccccc6[nH]5)c4)cc3)CC2)CC1	140
N[C@@H](CCNC1CCN(c2cccc(C(F)(F)F)c2)CC1)Cc1ccc(F)c(F)c1	1290

SMILES	IC50 [nM]
O=C(Nc1ccccc1)Nc1ccc(-c2cccc(-c3nc4ccc(C(F)(F)F)cc4[nH]3)c2)cc1	730
CC(=O)N1N=C(c2cccs2)Sc2c1nc(-c1ccc(Cl)cc1)n2C(C)=O	740
O=S(=O)(NC1=NCCC1)c1cccc(Nc2nc(C(F)(F)F)nc3ccccc23)c1	950
Cc1cc(NCCC(=O)NCCOc2ccccc2)nc(NCCc2ccc(F)cc2)n1	940
O=C(Nc1ccc(-c2nc3ccccc3[nH]2)cc1)C1CCN(Cc2ccc(F)cc2)CC1	840
Cc1cccc(Nc2nc(N[C@@H]3CCCNC3)nc3cc[nH]c(=O)c23)c1	680
COC(=O)c1ccc2c(-c3nc4ccc(OC)cc4[nH]3)c[nH]c2c1	880
COc1ccc(CN(C)CCCOc2ccc(NC(=O)C=Cc3ccc(C(C)(C)C)cc3)cc2)cc1OC	860
Cc1ccnc2nc(C(=O)Nc3cc(C(F)(F)F)ccc3N3CCCCC3)nn12	60
COc1ccc(CCc2ccc(-c3c(C)[nH]c(C)c(Cl)c3=O)cc2)cc1	20
CCC[C@@H]([C@@H](CC1CCCCC1)C(=O)N[C@@H](CCCCNS(C)(=O)=O)C(=O)Nc1nccs1)N(O)C=O	80
CC1(C)N=C(N)N=C(N)N1OCCCCON1C(N)=NC(N)=NC1(C)C	70
CN1CCC(N(Cc2ccc(-c3cnc(NCc4ccccc4)nc3)cc2)S(=O)(=O)c2ccccc2)CC1	780
Cc1cc(Br)cnc1CCCCN=C1NC(=O)CN1C	370
Oc1ccc(CCNc2nc(NCc3ccccc3-c3ccccc3)nc(N3CCCNCC3)n2)cc1	880
N#Cc1cc(C(=O)Nc2ccccc2)c(N)nc1SCC(=O)Nc1ccc(Br)cc1	1100
CO/C(=C\C=C\c1cc2cc(Cl)c(Cl)cc2[nH]1)C(=O)NCCCNCCN(C)c1ccccc1	780
Cc1cccc(C)c1CNc1ccnc2cc(C#N)ccc12	680
COc1cc(C=Cc2ccc3ccccc3n2)cc(Br)c1OCC(=O)N(C)C	1100
O=C(Nc1ccc(OC2CCN(Cc3ccc(F)cc3)C2)c(Cl)c1)c1ccco1 (configuration not stated)	190
Oc1ccccc1CNCc1ccc(-c2cnc(N3CCCC(c4ccccc4)C3)nc2)cc1 (configuration not stated)	690
CCCc1cn2c3c(cc(C(=O)N[C@@H](Cc4ccccc4)[C@H](O)CNC4CCOCC4)cc13)N(CC)S(=O)(=O)CC2	100
CCOC(=O)CCCOc1cc(Cc2cnc(N)nc2N)cc(OC)c1OC	240
CC1CCCC(Nc2noc(-c3sccc3Br)n2)C1 (configuration not stated)	690
